Experimental data as given in patent publication US20220169632A1, “METHODS AND MATERIALS FOR INCREASING OR MAINTAINING NICOTINAMIDE MONONUCLEOTIDE ADENYLYL TRANSFERASE-2 (NMNAT2) POLYPEPTIDE LEVELS” (University of Pittsburgh - Of the Commonwealth System of …, priority 2019, published 2022).

Each compound was assayed on NMNAT2 (assay: NMNAT2-Hibit nano-luciferase activity in transfected U87MG cells, 25 μM, 24 hours). Settings: NMNAT2-Hibit luc plasmid, 24 hours (Table B).
Assay type: cell-based
Method: Selected compounds were tested in vitro. Briefly, U87MG cells were transfected with NMNAT2-Hibit luc plasmid. Cells were treated with a test compound at 25 μM for 24 hours. Cells were then collected and assayed for nano-luciferase activity.

Row | SMILES | B: compound efficacy (IC50) for NMNAT2 activation; increase in NMNAT2 luciferase activity
1 | Cc1ccc2onc(CNC(=O)N(C)c3cccc(Cl)c3)c2c1 [Compound 181055] | + (“+” <20% increase in NMNAT2 luciferase activity.)
2 | Cc1ccc2onc(CNC(=O)N(C)c3ccc(C)c(C)c3)c2c1 [Compound 181056] | + (“+” <20% increase in NMNAT2 luciferase activity.)
3 | Cc1ccc2onc(CNC(=O)N(C)c3ccccc3Cl)c2c1 [Compound 181057] | + (“+” <20% increase in NMNAT2 luciferase activity.)
4 | Cc1cccc(N(C)C(=O)NCc2noc3ccc(C)cc23)c1 [Compound 181058] | + (“+” <20% increase in NMNAT2 luciferase activity.)
5 | Cc1ccc2onc(CNC(=O)NCCc3ccc(Cl)cc3)c2c1 [Compound 181059] | + (“+” <20% increase in NMNAT2 luciferase activity.)
6 | COc1ccc(CNC(=O)NCc2noc3ccc(C)cc23)cc1 [Compound 181060] | ++ (“++” >20% and <100% increase in NMNAT2 luciferase activity.)
7 | CCCN(C(=O)NCc1noc2ccc(C)cc12)c1ccc(Cl)c(Cl)c1 [Compound 181061] | + (“+” <20% increase in NMNAT2 luciferase activity.)
8 | Cc1ccc(NC(=O)NCc2noc3ccc(C)cc23)c(Cl)c1 [Compound 181062] | + (“+” <20% increase in NMNAT2 luciferase activity.)
9 | Cc1ccc2onc(CNC(=O)NC3CC3)c2c1 [Compound 181063] | + (“+” <20% increase in NMNAT2 luciferase activity.)
10 | CCn1c2ccccc2c2cc(NC(=O)NCc3noc4ccc(C)cc34)ccc21 [Compound 181064] | + (“+” <20% increase in NMNAT2 luciferase activity.)
11 | Cc1ccc2onc(CNC(=O)NC3CCN(Cc4ccccc4)CC3)c2c1 [Compound 181065] | + (“+” <20% increase in NMNAT2 luciferase activity.)
12 | Cc1ccc2onc(CNC(=O)Nc3cccc(C#N)c3)c2c1 [Compound 181066] | + (“+” <20% increase in NMNAT2 luciferase activity.)
13 | CCc1cccc(NC(=O)NCc2noc3ccc(C)cc23)c1 [Compound 181067] | + (“+” <20% increase in NMNAT2 luciferase activity.)
14 | CCc1ccc(CNC(=O)NCc2noc3ccc(C)cc23)cc1 [Compound 181068] | ++ (“++” >20% and <100% increase in NMNAT2 luciferase activity.)
15 | Cc1ccc(CNC(=O)NCc2noc3ccc(C)cc23)cc1 [Compound 181069] | ++ (“++” >20% and <100% increase in NMNAT2 luciferase activity.)
16 | CCCCN(C)CCNC(=O)NCc1noc2ccc(C)cc12 [Compound 181070] | + (“+” <20% increase in NMNAT2 luciferase activity.)
17 | Cc1ccc2onc(CNC(=O)NC3CCCC3)c2c1 [Compound 181071] | + (“+” <20% increase in NMNAT2 luciferase activity.)
18 | COc1ccc(OC)c(CNC(=O)NCc2noc3ccc(C)cc23)c1 [Compound 181072] | + (“+” <20% increase in NMNAT2 luciferase activity.)
19 | Cc1ccc2onc(CNC(=O)NCCN(C)Cc3ccccc3)c2c1 [Compound 181073] | + (“+” <20% increase in NMNAT2 luciferase activity.)

Row | SMILES | B: compound efficacy (IC50) for NMNAT2 activation; increase in NMNAT2 luciferase activity
20 | Cc1ccc2onc(CNC(=O)Nc3ccccc3C)c2c1 [Compound 181074] | + (“+” <20% increase in NMNAT2 luciferase activity.)
21 | CCc1ccccc1NC(=O)NCc1noc2ccc(C)cc12 [Compound 181075] | + (“+” <20% increase in NMNAT2 luciferase activity.)
22 | COc1cccc(CNC(=O)NCc2noc3ccc(C)cc23)c1 [Compound 181076] | + (“+” <20% increase in NMNAT2 luciferase activity.)
23 | Cc1ccc2onc(CNC(=O)NCc3cccc(Cl)c3)c2c1 [Compound 181077] | ++ (“++” >20% and <100% increase in NMNAT2 luciferase activity.)
24 | COc1ccc(NC(=O)NCc2noc3ccc(C)cc23)cc1 [Compound 181078] | + (“+” <20% increase in NMNAT2 luciferase activity.)
25 | Cc1ccc2onc(CNC(=O)Nc3ccccc3Cl)c2c1 [Compound 181079] | + (“+” <20% increase in NMNAT2 luciferase activity.)
26 | Cc1ccc2onc(CNC(=O)Nc3ccc(Cl)cc3)c2c1 [Compound 181080] | + (“+” <20% increase in NMNAT2 luciferase activity.)
27 | Cc1ccc2onc(CNC(=O)NCc3ccccc3Cl)c2c1 [Compound 181081] | + (“+” <20% increase in NMNAT2 luciferase activity.)
28 | Cc1ccc2onc(CNC(=O)NCc3ccc(Cl)cc3)c2c1 [Compound 181082] | ++ (“++” >20% and <100% increase in NMNAT2 luciferase activity.)
29 | Cc1ccc(CCNC(=O)NCc2noc3ccc(C)cc23)cc1 [Compound 181083] | ++ (“++” >20% and <100% increase in NMNAT2 luciferase activity.)
30 | CC(=O)c1cccc(NC(=O)NCc2noc3ccc(C)cc23)c1 [Compound 181084] | + (“+” <20% increase in NMNAT2 luciferase activity.)
31 | Cc1ccc2onc(CNC(=O)NC3CCCCC3C)c2c1 (centres unmarked) [Compound 181085] | + (“+” <20% increase in NMNAT2 luciferase activity.)
32 | Cc1ccc2onc(CNC(=O)NCCc3c[nH]c4ccccc34)c2c1 [Compound 181086] | ++ (“++” >20% and <100% increase in NMNAT2 luciferase activity.)
33 | Cc1ccc2onc(CNC(=O)N(C)c3ccc(F)cc3)c2c1 [Compound 181087] | + (“+” <20% increase in NMNAT2 luciferase activity.)
34 | CCOc1ccc(CCNC(=O)NCc2noc3ccc(C)cc23)cc1 [Compound 181088] | + (“+” <20% increase in NMNAT2 luciferase activity.)
35 | CSc1ccc(CCNC(=O)NCc2noc3ccc(C)cc23)cc1 [Compound 181089] | ++ (“++” >20% and <100% increase in NMNAT2 luciferase activity.)
36 | Cc1ccc2onc(CNC(=O)NC(C)c3ccccc3)c2c1 (centres unmarked) [Compound 181090] | + (“+” <20% increase in NMNAT2 luciferase activity.)
37 | Cc1cc(C)cc(NC(=O)NCc2noc3ccc(C)cc23)c1 [Compound 181091] | + (“+” <20% increase in NMNAT2 luciferase activity.)
38 | Cc1ccc2onc(CNC(=O)NCc3ccccc3)c2c1 [Compound 181092] | + (“+” <20% increase in NMNAT2 luciferase activity.)

Same assay, conditions: NMNAT2-Hibit luc plasmid, 24 hours (Table C)

Row | SMILES | C: Compound efficacy for NMNAT2 activation; increase in NMNAT2 luciferase activity
39 | O=C(Cn1cc(C(=O)C(F)(F)F)c2ccccc21)NCc1ccco1 [Compound 181101] | + (“+” <20% increase in NMNAT2 luciferase activity.)
40 | CCc1cccc2c(C(=O)C(F)(F)F)cn(CC(=O)NCc3ccco3)c12 [Compound 181102] | + (“+” <20% increase in NMNAT2 luciferase activity.)
41 | O=C(Cn1cc(C(=O)C(F)(F)F)c2cc(Br)ccc21)NCc1ccco1 [Compound 181103] | + (“+” <20% increase in NMNAT2 luciferase activity.)
42 | O=C(CN1C(=O)c2cccc3cccc1c23)NCc1ccco1 [Compound 181104] | + (“+” <20% increase in NMNAT2 luciferase activity.)
43 | O=C(Cn1cc(C(=O)C2CC2)c2ccccc21)NCc1ccco1 [Compound 181105] | + (“+” <20% increase in NMNAT2 luciferase activity.)
44 | O=C(Cn1cc(C(=O)c2ccccc2)c2ccccc21)NCc1ccco1 [Compound 181106] | +++ (“+++” >100% increase in NMNAT2 luciferase activity.)
45 | O=C(Cn1cc(C(=O)C2CCCCC2)c2ccccc21)NCc1ccco1 [Compound 181107] | +++ (“+++” >100% increase in NMNAT2 luciferase activity.)
46 | CCC(=O)c1cn(CC(=O)NCc2ccco2)c2ccccc12 [Compound 181108] | + (“+” <20% increase in NMNAT2 luciferase activity.)
47 | CC(=O)c1c(C)n(CC(=O)NCc2ccco2)c2ccccc12 [Compound 181109] | + (“+” <20% increase in NMNAT2 luciferase activity.)
48 | Cc1c(C=O)c2ccccc2n1CC(=O)NCc1ccco1 [Compound 181110] | + (“+” <20% increase in NMNAT2 luciferase activity.)
49 | Cc1cc2ccccc2c(=O)n1CC(=O)NCc1ccco1 [Compound 181112] | + (“+” <20% increase in NMNAT2 luciferase activity.)
50 | Cc1ccc2c(c1)n(CC(=O)NCc1ccco1)c(=O)c1cccn12 [Compound 181113] | + (“+” <20% increase in NMNAT2 luciferase activity.)
51 | Cc1ccc(Cn2cc(CCCC(=O)NCc3ccco3)c3ccccc32)cc1 [Compound 181114] | +++ (“+++” >100% increase in NMNAT2 luciferase activity.)
52 | CCn1cc(CCC(=O)NCc2ccco2)c2ccccc21 [Compound 181115] | + (“+” <20% increase in NMNAT2 luciferase activity.)
53 | Cc1ccc(Cn2cc(CCC(=O)NCc3ccco3)c3ccccc32)cc1 [Compound 181116] | ++ (“++” >20% and <100% increase in NMNAT2 luciferase activity.)
